Experimental data published in US20090064375A1, “Paraquat Resistance Gene and a Vascular Tissue- and Trichome-specific Promoter” (priority 2003, published 2009).

Test system: non-transformant (wild-type Arabidopsis thaliana ecotype Col-0)
Test: Evaluation of paraquat resistance: growth of germinated individuals in paraquat-containing ½ MS medium, non-transformant
Format: in vivo
Details: 3 μM of paraquat in ½ MS agar medium, cultured for eight days at 22° C., FIG. 2C
Description: Seeds derived from the produced AtMVR gene transformant and non-transformant (wild-type Arabidopsis thaliana ecotype Col-0) were sterilely inoculated in ½ MS agar (1%) medium (2.3 g/l of Murashige and Skoog Plant Salt Mixture (Wako Pure Chemical Industries Ltd.), 1.5 mg/l of thiamine hydrochloride, 2.5 mg/l of nicotinic acid, 0.25 mg/l of pyridoxine hydrochloride, 1.5% of sucrose) containing 3 μM of paraquat (methyl viologen (Sigma Chemical Co.)), and cultured for eight days at 22° C. under irradiation of light of 60 μmol/m^2/s (cycle of 16 hrs photoperiod/8 hrs dark period). After culture, the growth of germinated individuals was evaluated. The results are shown in FIG. 2, wherein FIG. 2B is a photograph showing growth of an AtMVR gene transformant and a non-transformant in a ½ MS culture medium without paraquat, and FIG. 2C is a photograph showing growth of an AtMVR gene transformant and a non-transformant in a ½ MS culture medium with paraquat. FIG. 2A is a schematic diagram showing the location of the AtMVR gene transformant and the non-transformant in FIGS. 2B and 2C.

C[n+]1ccc(-c2cc[n+](C)cc2)cc1 [paraquat]
growth of germinated individuals in a medium containing paraquat: developed chlorosis and died
